In one assay the test system is A549 cells. The experiment in a line: Measurement of PGE2 concentration in A549 cell medium (ELISA). The assay is classed as cell-based, human. The note with it: PGE2 concentration versus PBS control, 5 μM, 12 hours. In a few lines:
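A549 cells in RPMI 1640 with 8% FBS, seeded at 5×10^5 cells/well and grown 24 h at 37° C, 5% CO2; at ~80% confluence treated with 15-PGDH inhibitor at 5 μM in PBS (PBS-only negative control). After 12 h, PGE2 in the medium was measured by ELISA against a standard curve.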
On the technique in general: In an ELISA, binding on a coated surface is turned into a signal by an enzyme label.
Turning to `O=C1NC(=O)/C(=C/c2ccc(OC(=O)C3CC3)cc2)S1` [Compound 61, (Z)-4-((2,4-dioxothiazolidin-5-ylidene)methyl)phenyl cyclopropanecarboxylate], the Increment % is recorded as −99.97%.
Still for that read-out and setting: as for `O=C1NC(=O)/C(=C/c2cccc(OC(=O)C3CCC3)c2Cl)S1` [Compound 77, (Z)-2-chloro-3-((2,4-dioxothiazolidin-5-ylidene)methyl)phenyl cyclobutanecarboxylate], the figure is 56.54%; as for `O=C(Cc1ccccc1)Oc1cccc(/C=C2\SC(=O)NC2=O)c1Cl` [Compound 87, (Z)-2-chloro-3-((2,4-dioxothiazolidin-5-ylidene)methyl)phenyl 2-phenylacetate], 89.77%; as for `O=C(CCc1ccccc1)Oc1ccc(/C=C2\SC(=O)NC2=O)cc1Br` [Compound 28, (Z)-2-bromo-4-((2,4-dioxothiazolidin-5-ylidene)methyl)phenyl 3-phenylpropanoate], 190.32%.
On the same count and under the same terms, to `O=C(CC1CCCC1)Oc1ccc(/C=C2\SC(=O)NC2=O)cc1` [Compound 64, (Z)-4-((2,4-dioxothiazolidin-5-ylidene)methyl)phenyl 2-cyclopentylacetate] belongs 25.34%; to `O=C(CC1CCCCC1)Oc1ccc(/C=C2\SC(=O)NC2=O)cc1Br` [Compound 22, (Z)-2-bromo-4-((2,4-dioxothiazolidin-5-ylidene)methyl)phenyl 2-cyclohexylacetate], 89.77%; to `COc1cc(/C=C2\SC(=O)NC2=O)ccc1OC(=O)CC1CCCC1` [Compound 34, (Z)-4-((2,4-dioxothiazolidin-5-ylidene)methyl)-2-methoxyphenyl 2-cyclopentylacetate], −70.77%.
On the same count and under the same terms, as for `O=C(CCc1ccccc1)Oc1ccc(/C=C2\SC(=O)NC2=O)cc1` [Compound 73, (Z)-4-((2,4-dioxothiazolidin-5-ylidene)methyl)phenyl 3-phenylpropanoate], the figure is 102.39%.
In the case of `COc1cc(/C=C2\SC(=O)NC2=O)ccc1OC(=O)CCCc1ccccc1` [Compound 44, (Z)-4-((2,4-dioxothiazolidin-5-ylidene)methyl)-2-methoxyphenyl 4-phenylbutanoate], the Increment % worked out at 299.80%.
Still for that read-out and setting: to `O=C(CC1CCCC1)Oc1ccc(/C=C2\SC(=O)NC2=O)cc1Cl` [Compound 4, (Z)-2-chloro-4-((2,4-dioxothiazolidin-5-ylidene)methyl)phenyl 2-cyclopentylacetate] belongs 103.32%; to `O=C(Cc1ccccc1)Oc1ccc(/C=C2\SC(=O)NC2=O)cc1Br` [Compound 27, (Z)-2-bromo-4-((2,4-dioxothiazolidin-5-ylidene)methyl)phenyl 2-phenylacetate], 99.65%.
On to `O=C(CCCCc1ccccc1)Oc1ccc(/C=C2\SC(=O)NC2=O)c(Cl)c1` [Compound 105, (Z)-3-chloro-4-((2,4-dioxothiazolidin-5-ylidene)methyl)phenyl 5-phenylpentanoate], for which the Increment % was 89.4598%.
Still for that read-out and setting: as for `COc1cc(/C=C2\SC(=O)NC2=O)ccc1OC(=O)CCCCC1CCCCC1` [Compound 40, (Z)-4-((2,4-dioxothiazolidin-5-ylidene)methyl)-2-methoxyphenyl 5-cyclohexylpentanoate], the figure is 7.88%.
Still for that read-out and setting: as for `O=C(CCc1ccccc1)Oc1ccc(/C=C2\SC(=O)NC2=O)c(Cl)c1` [Compound 103, (Z)-3-chloro-4-((2,4-dioxothiazolidin-5-ylidene)methyl)phenyl 3-phenylpropanoate], the figure is 159.989%.

The assay is the same for the next values; noted with them: inhibitor 5 μM, medium collected after 12 hours, ELISA.
`O=C1NC(=O)/C(=C/c2ccc(OC(=O)C3CC3)cc2)S1` [Compound 61, (Z)-4-((2,4-dioxothiazolidin-5-ylidene)methyl)phenyl cyclopropanecarboxylate] yielded a PGE2 concentration of 0.04774 pg/mL.
On the same count and under the same terms, to `O=C1NC(=O)/C(=C/c2cccc(OC(=O)C3CCC3)c2Cl)S1` [Compound 77, (Z)-2-chloro-3-((2,4-dioxothiazolidin-5-ylidene)methyl)phenyl cyclobutanecarboxylate] belongs 187.3399 pg/mL; to `O=C(Cc1ccccc1)Oc1cccc(/C=C2\SC(=O)NC2=O)c1Cl` [Compound 87, (Z)-2-chloro-3-((2,4-dioxothiazolidin-5-ylidene)methyl)phenyl 2-phenylacetate], 399.2994 pg/mL; to `O=C(CCc1ccccc1)Oc1ccc(/C=C2\SC(=O)NC2=O)cc1Br` [Compound 28, (Z)-2-bromo-4-((2,4-dioxothiazolidin-5-ylidene)methyl)phenyl 3-phenylpropanoate], 572.5235 pg/mL.
`O=C(CC1CCCC1)Oc1ccc(/C=C2\SC(=O)NC2=O)cc1` [Compound 64, (Z)-4-((2,4-dioxothiazolidin-5-ylidene)methyl)phenyl 2-cyclopentylacetate] had a PGE2 concentration of 199.4576 pg/mL.
As for `O=C(CC1CCCCC1)Oc1ccc(/C=C2\SC(=O)NC2=O)cc1Br` [Compound 22, (Z)-2-bromo-4-((2,4-dioxothiazolidin-5-ylidene)methyl)phenyl 2-cyclohexylacetate], the PGE2 concentration is 480.187 pg/mL.
`COc1cc(/C=C2\SC(=O)NC2=O)ccc1OC(=O)CC1CCCC1` [Compound 34, (Z)-4-((2,4-dioxothiazolidin-5-ylidene)methyl)-2-methoxyphenyl 2-cyclopentylacetate] came in with a PGE2 concentration of 57.64 pg/mL.
The compound `O=C(CCc1ccccc1)Oc1ccc(/C=C2\SC(=O)NC2=O)cc1` [Compound 73, (Z)-4-((2,4-dioxothiazolidin-5-ylidene)methyl)phenyl 3-phenylpropanoate] registered a PGE2 concentration of 261.4347 pg/mL.
Still for that read-out and setting: as for `COc1cc(/C=C2\SC(=O)NC2=O)ccc1OC(=O)CCCc1ccccc1` [Compound 44, (Z)-4-((2,4-dioxothiazolidin-5-ylidene)methyl)-2-methoxyphenyl 4-phenylbutanoate], the figure is 810.6337 pg/mL; as for `O=C(CC1CCCC1)Oc1ccc(/C=C2\SC(=O)NC2=O)cc1Cl` [Compound 4, (Z)-2-chloro-4-((2,4-dioxothiazolidin-5-ylidene)methyl)phenyl 2-cyclopentylacetate], 556.6271 pg/mL; as for `O=C(Cc1ccccc1)Oc1ccc(/C=C2\SC(=O)NC2=O)cc1Br` [Compound 27, (Z)-2-bromo-4-((2,4-dioxothiazolidin-5-ylidene)methyl)phenyl 2-phenylacetate], 393.7184 pg/mL.
Compound `O=C(CCCCc1ccccc1)Oc1ccc(/C=C2\SC(=O)NC2=O)c(Cl)c1` [Compound 105, (Z)-3-chloro-4-((2,4-dioxothiazolidin-5-ylidene)methyl)phenyl 5-phenylpentanoate] returned a PGE2 concentration of 211.5461 pg/mL.
For `COc1cc(/C=C2\SC(=O)NC2=O)ccc1OC(=O)CCCCC1CCCCC1` [Compound 40, (Z)-4-((2,4-dioxothiazolidin-5-ylidene)methyl)-2-methoxyphenyl 5-cyclohexylpentanoate], the PGE2 concentration was 218.7373 pg/mL.
Still for that read-out and setting: as for `O=C(CCc1ccccc1)Oc1ccc(/C=C2\SC(=O)NC2=O)c(Cl)c1` [Compound 103, (Z)-3-chloro-4-((2,4-dioxothiazolidin-5-ylidene)methyl)phenyl 3-phenylpropanoate], the figure is 290.2972 pg/mL.

Another assay deals with 15-PGDH (Homo sapiens (Human), UniProt P15428). The experiment in a line: 15-PGDH inhibitory activity (NADH at 340 nm). The assay is classed as biochemical. The following applies: concentration inhibiting 50% of 15-PGDH activity; purified 15-PGDH, 21 μM PGE2, 0.25 mM NAD+. An outline of the steps: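 GST-purified human 15-PGDH (E. coli BL-21 LysS, 10 μg) with 21 μM PGE2 and 0.25 mM NAD+ in 50 mM Tris-HCl pH 7.5, 0.1 mM DTT. Compound tested at 0.0001–64 μM; NADH formation read by absorbance at 340 nm against a standard curve.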
Sequence of 15-PGDH (P15428 whole entry): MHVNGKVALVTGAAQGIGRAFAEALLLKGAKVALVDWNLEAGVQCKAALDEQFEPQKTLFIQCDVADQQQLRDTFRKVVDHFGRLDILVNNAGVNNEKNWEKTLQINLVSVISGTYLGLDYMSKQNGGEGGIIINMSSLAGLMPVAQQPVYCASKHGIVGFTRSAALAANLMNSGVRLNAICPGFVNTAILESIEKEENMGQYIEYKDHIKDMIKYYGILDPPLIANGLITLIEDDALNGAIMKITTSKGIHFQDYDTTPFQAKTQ
For the compound `O=C1NC(=O)/C(=C/c2ccc(OC(=O)C3CC3)cc2)S1` [Compound 61, (Z)-4-((2,4-dioxothiazolidin-5-ylidene)methyl)phenyl cyclopropanecarboxylate], the midpoint of inhibition, the IC50, lay at 1410 nM.
Still for that read-out and setting: as for `O=C1NC(=O)/C(=C/c2cccc(OC(=O)C3CCC3)c2Cl)S1` [Compound 77, (Z)-2-chloro-3-((2,4-dioxothiazolidin-5-ylidene)methyl)phenyl cyclobutanecarboxylate], the figure is 482 nM.
The same measure, in the same setting: as for `O=C(Cc1ccccc1)Oc1cccc(/C=C2\SC(=O)NC2=O)c1Cl` [Compound 87, (Z)-2-chloro-3-((2,4-dioxothiazolidin-5-ylidene)methyl)phenyl 2-phenylacetate], the figure is 105 nM.
The same measure, in the same setting: as for `O=C(CCc1ccccc1)Oc1ccc(/C=C2\SC(=O)NC2=O)cc1Br` [Compound 28, (Z)-2-bromo-4-((2,4-dioxothiazolidin-5-ylidene)methyl)phenyl 3-phenylpropanoate], the figure is 28.4 nM; as for `O=C(CC1CCCC1)Oc1ccc(/C=C2\SC(=O)NC2=O)cc1` [Compound 64, (Z)-4-((2,4-dioxothiazolidin-5-ylidene)methyl)phenyl 2-cyclopentylacetate], 52.1 nM.
In the case of `O=C(CC1CCCCC1)Oc1ccc(/C=C2\SC(=O)NC2=O)cc1Br` [Compound 22, (Z)-2-bromo-4-((2,4-dioxothiazolidin-5-ylidene)methyl)phenyl 2-cyclohexylacetate], 20.6 nM corresponded to half-maximal inhibition (IC50).
The same measure, in the same setting: as for `COc1cc(/C=C2\SC(=O)NC2=O)ccc1OC(=O)CC1CCCC1` [Compound 34, (Z)-4-((2,4-dioxothiazolidin-5-ylidene)methyl)-2-methoxyphenyl 2-cyclopentylacetate], the figure is 60.2 nM.
The same measure, in the same setting: as for `O=C(CCc1ccccc1)Oc1ccc(/C=C2\SC(=O)NC2=O)cc1` [Compound 73, (Z)-4-((2,4-dioxothiazolidin-5-ylidene)methyl)phenyl 3-phenylpropanoate], the figure is 54.4 nM; as for `COc1cc(/C=C2\SC(=O)NC2=O)ccc1OC(=O)CCCc1ccccc1` [Compound 44, (Z)-4-((2,4-dioxothiazolidin-5-ylidene)methyl)-2-methoxyphenyl 4-phenylbutanoate], 23.9 nM; as for `O=C(CC1CCCC1)Oc1ccc(/C=C2\SC(=O)NC2=O)cc1Cl` [Compound 4, (Z)-2-chloro-4-((2,4-dioxothiazolidin-5-ylidene)methyl)phenyl 2-cyclopentylacetate], 78.3 nM.
Consider `O=C(Cc1ccccc1)Oc1ccc(/C=C2\SC(=O)NC2=O)cc1Br` [Compound 27, (Z)-2-bromo-4-((2,4-dioxothiazolidin-5-ylidene)methyl)phenyl 2-phenylacetate], for which the IC50 (in general, the concentration needed to halve the response being measured) came out at 40.6 nM.
In the case of `O=C(CCCCc1ccccc1)Oc1ccc(/C=C2\SC(=O)NC2=O)c(Cl)c1` [Compound 105, (Z)-3-chloro-4-((2,4-dioxothiazolidin-5-ylidene)methyl)phenyl 5-phenylpentanoate], half-maximal inhibition (IC50) required 130 nM.
For the compound `COc1cc(/C=C2\SC(=O)NC2=O)ccc1OC(=O)CCCCC1CCCCC1` [Compound 40, (Z)-4-((2,4-dioxothiazolidin-5-ylidene)methyl)-2-methoxyphenyl 5-cyclohexylpentanoate], the midpoint of inhibition, the IC50, lay at 28.2 nM. Against the preceding compound, the IC50 is about 4.6-fold lower.
The same measure, in the same setting: to `O=C(CCc1ccccc1)Oc1ccc(/C=C2\SC(=O)NC2=O)c(Cl)c1` [Compound 103, (Z)-3-chloro-4-((2,4-dioxothiazolidin-5-ylidene)methyl)phenyl 3-phenylpropanoate] belongs 87.5 nM.

These data come from US10787425B2, “Thiazolidinedione derivative and use thereof” (INDUSTRY-ACADEMIC COOPERATION FOUNDATION CHOSUN UNIVERSITY, priority 2016, dated 2020).
